Source: patent US20250129101A1, “Compound, Pharmaceutical Composition Comprising the Same and Method for Treating Cancer Using the Same” (NATIONAL TSING HUA UNIVERSITY, priority 2023, published 2025)
pEC50: −log10 of the molar value.

Assays:
[1] = target: T1, KIF2C (Homo sapiens, UniProt Q99661); assay: In vitro validation: KIF2C kinesin activity, malachite green-based phosphate colorimetric assay; format: biochemical
T1 construct: KIF2C (216-598 a.a.); 6xHis (C); made in house; host or cells: E. coli BL21 (DE3), pET-28a
T1 sequence (Q99661 216-598): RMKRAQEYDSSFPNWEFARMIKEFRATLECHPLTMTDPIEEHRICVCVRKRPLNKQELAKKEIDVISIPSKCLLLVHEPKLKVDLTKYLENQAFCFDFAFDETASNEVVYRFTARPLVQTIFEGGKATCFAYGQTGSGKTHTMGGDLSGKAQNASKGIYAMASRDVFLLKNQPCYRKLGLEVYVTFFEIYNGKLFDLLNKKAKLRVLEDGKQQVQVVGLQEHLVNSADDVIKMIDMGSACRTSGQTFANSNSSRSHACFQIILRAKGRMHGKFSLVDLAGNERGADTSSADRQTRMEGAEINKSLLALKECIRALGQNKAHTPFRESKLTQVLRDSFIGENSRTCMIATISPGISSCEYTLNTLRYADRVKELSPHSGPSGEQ
In short: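 KIF2C sN+M construct (aa 216-598, C-terminal 6×His, E. coli-expressed) ATPase activity with microtubules from porcine brain tubulin or HEK293 (293Fs) cells in BRB80 (80 mM PIPES pH 6.8, 1 mM GTP, 10% DMSO), 37° C for 2 hr. Released phosphate detected by malachite green reagent, 10 min, A650.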

[2] = target: T2, KIF2C and tubulin (Homo sapiens, UniProt Q99661); assay: KIF2C-tubulin affinity pull-down assay; format: binding
T2 construct: KIF2C (216-598 a.a.); made in house; host or cells: E. coli BL21 (DE3), pET-28a (KIF2C); tubulin from porcine brain (Cytoskeleton) or HEK293 cells
T2 sequence (Q99661 216-598): as above
Description: The mixture was subjected to KIF2C pull-down with 50 μL of pre-equilibrated Ni-NTA resin. Residual tubulin that remained interacting with KIF2C was resolved by SDS-PAGE followed by Coomassie brilliant blue staining or western blotting.

[3] = tested on: 4T1 R8 cells; assay: Colony formation assay, 4T1 R8 cells; format: cell-based, mouse; conditions: 1 μM 7S9 with 400 nM paclitaxel
Description: To assess the long-term survival of breast cancer cell lines following the treatment of KIF2C knockdown or inhibition, the cells trypsinized into single-cell suspension were homogeneously seeded in 6-well cell culture plates at a density of 5000 cells per dish, supplemented with 2× complete medium (50% 4×DMEM, 20% FBS, 2% penicillin-streptomycin, ddH2O, and 2× glutaMAX™), agarose (0.6% for bottom agar layer; 0.3% for top cell layer), ddH2O, and DMEM. After incubation for 24 hr, cells were treated with indicated drugs, such as DMSO, KIF2C inhibitors, or chemotherapy drugs, and then cultured at 37° C. incubator in an atmosphere of humidified air with 5% CO2 for a further 14-30 days. When the cell colonies grew to appropriate sizes, the culture mediums were replaced with PBS for washing. After that, the plates were stained with 10% crystal violet and analyzed using Image J.

[4] = tested on: 4T1 R4; assay: In vivo tumor growth inhibition, 4T1 R4 syngeneic model; design: species or system mouse; conditions: R4 tumors, BALB/c mice
Description: The mice were housed at the National Health Research Institute (NHRI) Animal Center in accordance with the Institutional Animal Care and Use Committee procedures and guidelines. The 4T1-derived cells, including 4T1, 4T1 R4, and 4T1 R8, used for implantation were harvested during log phase growth and resuspended in phosphate-buffered saline. Each mouse was injected s.c. in the right flank with 5×10^5 cells. After tumor size reached 60-100 mm 3 (D1), mice were divided into groups and received treatment with vehicle or different compounds alone or in combinations. Tumor size, in mm 3, was measured twice per week and calculated from Tumor volume=(w 2×1)/2, where w=width and 1=length in mm of the tumor. The values of tumor size were expressed as mean±SEM.

SMILES: CCN1CCN(C(=O)COc2ccc(/C=c3\sc4n(c3=O)C(c3ccc(Cl)cc3)C(C(=O)OC(C)C)=C(C)N=4)cc2)CC1.O=C(O)/C=C\C(=O)O (centres unmarked) [7S9 (133), isopropyl (Z)-5-(4-chlorophenyl)-2-(4-(2-(4-ethylpiperazin-1-yl)-2-oxoethoxy)benzylidene)-7-methyl-3-oxo-2,3-dihydro-5H-thiazolo[3,2-a]pyrimidine-6-carboxylate maleate]
- inhibitory effect against KIF2C (in words) ([1]; 50 μM (FIG. 4I)): selective inhibition against KIF2C
- KIF2C activity in the presence of paclitaxel (in words) ([1]; 100 μM 7S9, 1 μM paclitaxel): could successfully inhibit KIF2C activity in the presence of paclitaxel
- inhibition of KIF2C kinesin activity (in words) ([1]; 100 μM (FIG. 4B)): most potent inhibitor of KIF2C
- pEC50 ([1]; concentration that inhibits 50% of KIF2C activity): > 4.30
- molecular interaction between KIF2C and tubulin (in words) [2]: increased by 7S9 in a dose-dependent manner
- colony formation, combined treatment (in words) [3]: suppression of colony formation was detected only with combined treatment of 7S9 and paclitaxel
- tumor growth inhibition ([4]; 7S9 50 mg/kg intraperitoneally, 5on/2off two cycles): 29%
- tumor growth inhibition, combination ([4]; 7S9 50 mg/kg with paclitaxel 15 mg/kg): 70.2%
